Results from patent US20210261636A1, “NEOANTIGENS EXPRESSED IN MULTIPLE MYELOMA AND THEIR USES” (Janssen Biotech, Inc., priority 2020, published 2021).

What was measured:
CD8+ T cells = test: Exogenous autologous healthy donor restimulation assay, TNFα and IFNγ production by CD8+ T cells; assay type: cell-based, human; set-up: Frequency (TNFα+ IFNγ+ CD8 T cells): unit not given here; details: for Fold change (CD8+) vs. DMSO: maximum CD8+ T-cell response (TNFα and IFNγ); for Fold change (CD8+) vs. DMSO / Frequency (TNFα+ IFNγ+ CD8 T cells): donor independent, peptide pool 10 μg/mL, healthy donors; for Frequency (TNFα+ IFNγ+ CD8 T cells): maximum CD8+ T-cell response; for Immunogenic (yes/no): positive if CD8+ and/or CD4+ double positive TNFα/IFNγ frequency >=3-fold over DMSO and at least 0.01%
Method in brief: (§1)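 CD1c+ DCs from healthy donor PBMCs pulsed 2 h with 15-mer overlapping neoantigen peptide pools (10 μg/mL), irradiated 50 Gy, then co-cultured 12 days with autologous CD3+ T cells plus IL-15/IL-2. Restimulated day 11 with same pools, overnight with protein inhibitor; intracellular TNFα/IFNγ by flow. Positive: ≥3-fold over DMSO and ≥0.01% double-positive.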

CD4+ T cells = test: Exogenous autologous healthy donor restimulation assay, TNFα and IFNγ production by CD4+ T cells; assay type: cell-based, human; set-up: Frequency (TNFα+ IFNγ+ CD4 T cells): unit not given here; details: donor independent, peptide pool 10 μg/mL, healthy donors; for Fold change (CD4+) vs. DMSO: maximum CD4+ T-cell response (TNFα and IFNγ); for Frequency (TNFα+ IFNγ+ CD4 T cells): maximum CD4+ T-cell response
Method in brief: as §1

Sequence | Fold change (CD8+) vs. DMSO (CD8+ T cells) | Frequency (TNFα+ IFNγ+ CD8 T cells) (CD8+ T cells) | Immunogenic (yes/no) (CD8+ T cells) | Fold change (CD4+) vs. DMSO (CD4+ T cells) | Frequency (TNFα+ IFNγ+ CD4 T cells) (CD4+ T cells)
LVARPEIQIFMEEDVMKVE [AS124, alternative splicing, PDZRN4] | 5.27 | 0.089 | Yes | 7.31 | 0.064
SATTRSITGQDILSLEKERR [AS17, alternative splicing, DCC] | 14.05 | 0.13 | Yes | 7.078 | 0.028
AFIYHAFVGSTKTAWRTTL [FUS13, gene fusion KCNQ5-> KCNQ5-IT1] | 3.96 | 0.033 | Yes | 8.79 | 0.057
KRYGCVFQVSIRHLSFPVTDILP [AS77, alternative splicing, TRAF3] | 369.64 | 1.12 | Yes | 7.547 | 0.046
QRDRDSIKVGLKIYRLRNGLKGL [AS76, alternative splicing, TLE4] | 6.15 | 0.54 | Yes | 224.35 | 0.34
GRAGQGGGMISVSQEFIK [FUS7, gene fusion FAM98A-> LOC105374454] | 3.04 | 0.093 | Yes | 17.18 | 0.21
SSLQEHRKLLS [AS52, alternative splicing, PRDM5] | 12.72 | 0.18 | Yes | 1.9 | 0.012
LRYLIHLRKWKIK [FUS55, gene fusion FAM214A-> ARPP19] | 13.57 | 0.38 | Yes | 74.67 | 0.056
VEDEEKKEAGTHFIHLTGTTVSAGVPEEMPATTLRREVF [AS108, alternative splicing, ACIN1] | 1406.07 | 12.5 | Yes | 179.31 | 1.06
ACGACGAGFFIKQKCIEQRESRSLS [FUS22, gene fusion IGLL5-> COMMD3-BMI1, BMI1] | 89.07 | 0.11 | Yes | 0.86 | 0.006
LGRLEEAKVPLKMLLF [AS122, alternative splicing, OGT] | 3.63 | 0.044 | Yes | 13.71 | 0.048
QILEQPKQVRLKGWDFKC [AS68, alternative splicing, NFKB1] | 4 | 0.022 | Yes | 21.77 | 0.033
EGTPFEDGKSYSLCFL [AS78, alternative splicing, UBE2B] | 29.32 | 0.52 | Yes | 3.14 | 0.024
GTTRLLSGEDFS [AS111, alternative splicing, CD55] | 1.16 | 0.012 | Yes | 16.71 | 0.06
VAPSGLYYCG [FUS34, gene fusion CLN6-> CALML4] | 8.7 | 0.013 | Yes | 8.33 | 0.015
SLLSLFPGKTVEITCLQHQKC [AS3, alternative splicing, BBS9] | 92.41 | 0.28 | Yes | 3.43 | 0.026
SRAPIKMSVLGQGHSRCLLHCLCLVAPMAFPVRLRVPCGG [AS16, alternative splicing, CAMSAP1] | 8200 | 0.82 | Yes | 15.062 | 0.011

Sequence | Fold change (CD8+) vs. DMSO (CD8+ T cells) | Frequency (TNFα+ IFNγ+ CD8 T cells) (CD8+ T cells) | Immunogenic (yes/no) (CD8+ T cells) | Fold change (CD4+) vs. DMSO (CD4+ T cells) | Frequency (TNFα+ IFNγ+ CD4 T cells) (CD4+ T cells)
MKQFLDFGECGPGPWAFLRGPGRGAAAAAPGRVGAGQLSPEAHPSSSAFPPPAP [AS10, alternative splicing, PDK1] | 70.588 | 12 | Yes | 76.818 | 0.028
LDQCVETLCSLSKSD [FUS44, gene fusion ZGPAT-> LIME1] | 4.82 | 0.097 | Yes | 4.8 | 0.024
LLPPGQESAIIGPPGMQ [FUS45, gene fusion IFNAR2-> IL10RB] | 88.8 | 0.43 | Yes | 10.56 | 0.1
TVPASQKLSCSLDPKHLRQFHL [AS30, alternative splicing, BLNK] | 13.86 | 0.082 | Yes | 2.23 | 0.012
QILQQALKKLPFSLCITECETIAYHLARDSNGNLEL [AS131, alternative splicing, USP25] | 299.44 | 0.53 | Yes | 10.53 | 0.008
IMLIGNKSNCQKQLLRDMKILNEFYHGLILTLQLS [AS126, alternative splicing, RAB2B] | 161.72 | 0.49 | Yes | 6.861 | 0.04
LARQISFKSLI [FUS14, gene fusion UBE2J1-> GABRR2] | 3.27 | 0.005 | Yes | 256.93 | 0.19
PPGGHSPQDLSIREIFCLGHKEVC [AS136, alternative splicing, ZNF592] | 5.91 | 0.072 | Yes | 10.86 | 0.07
LQAILQPGNFILVNEI [AS5, alternative splicing, C3orf79] | 4.64 | 0.068 | Yes | 19.14 | 0.14
DLFDEFDNSRLVSRSWFFFYLRNKWNLALGF [AS24, alternative splicing, ST3GAL6] | 1300 | 0.13 | Yes | 613.88 | 3.14
FALMASLGIPQTMAA [FUS56, gene fusion ZNF772-> VN1R1] | 2.73 | 0.007 | Yes | 115.03 | 0.75
PRDNHTDHENPRGSDGQGRWKCPSQVTYIRRTLM [FUS16, gene fusion UBE2J1-> GABRR2] | 8.86 | 0.12 | Yes | 4.388 | 0.027
IDPSSPLHTYYERITKGRNPERRYMKPERISPGHEAMEKNLEDNL [AS129, alternative splicing, TET1] | 19.08 | 0.27 | Yes | 9.79 | 0.022
AGDVLFIPGISLKVHKVQHSKVINICN [AS55, alternative splicing, TYW5] | 96.05 | 0.17 | Yes | 27.71 | 0.042
IEKSISARITEQ [FUS36, gene fusion TNFRSF17-> SNX29] | 8.7 | 0.013 | Yes | 4.69 | 0.008
RQLQQQLSSLSGPEGVPFLKLWCLDDLLSTLLGTCRCPSRAQF [FUS57, gene fusion MED12-> NLGN3] | 17.2 | 0.14 | Yes | 11.65 | 0.24
